What was measured:
PSMA protein = target: T1, PSMA protein (Homo sapiens, UniProt Q04609); assay: Measurement of binding capacity: competition with [125I]15 on 22RV1 cells; details: for IC50: [125I]15 0.1 nM, 37° C., 2 hours, read-out: IC50 (Mean ± SD)
T1 construct: host or cells: 22RV1 human prostate cancer cells
Method: RPMI1640 supplemented with 1% BSA (bovine serum albumin) was used as a buffer solution.
[^125I]15 (0.1 nM) was added to a vessel containing 22RV1 cells (5×10^4), to which [^18F]1-1 to [^18F]1-9 compounds were loaded at 9 concentrations ([…]), followed by stirring at 37° C. for 2 hours. Upon completion of the stirring, the vessel was washed with 2 mL of PBS solution three times, and then the remaining radioactivity and 50% inhibition concentration (nonlinear regression method) were measured using a gamma counter (2480 WIZARD2 Gamma Counter PerkinElmer Co., MA) and GraphPad Prism (GraphPad Software, Inc., CA).

PC-3 PIP = assay: Measurement of cellular internalization; format: cell-based, human
Excerpt: Then, the membrane protein and the cytoplasmic protein were separated by using Mem-PER Plus Membrane Protein Extraction Kit and NE-PER Nuclear and Cytoplasmic Extraction Kit (ThermoFisher Scientific). The internalization rate (%) was confirmed by obtaining the radioactivity ratio in the cytoplasmic protein to the total radioactivity.

PSMA+ PC-3 PIP tumors = assay: MicroPET/CT in mice transplanted with prostate cancer cell lines; format: in vivo, nude mouse; details: for tumor binding (MicroPET/CT, FIG. 3): nude mouse with PC-3 PIP and PC-3 flu tumors; for excretion (MicroPET/CT, FIG. 3): nude mouse, intravenous, 60 minutes imaging
PSMA+ PC-3 PIP tumor = assay: Biodistribution test with prostate cancer model mouse
[1] = 0.5 h after tail vein injection

T1 sequence (Q04609 whole entry): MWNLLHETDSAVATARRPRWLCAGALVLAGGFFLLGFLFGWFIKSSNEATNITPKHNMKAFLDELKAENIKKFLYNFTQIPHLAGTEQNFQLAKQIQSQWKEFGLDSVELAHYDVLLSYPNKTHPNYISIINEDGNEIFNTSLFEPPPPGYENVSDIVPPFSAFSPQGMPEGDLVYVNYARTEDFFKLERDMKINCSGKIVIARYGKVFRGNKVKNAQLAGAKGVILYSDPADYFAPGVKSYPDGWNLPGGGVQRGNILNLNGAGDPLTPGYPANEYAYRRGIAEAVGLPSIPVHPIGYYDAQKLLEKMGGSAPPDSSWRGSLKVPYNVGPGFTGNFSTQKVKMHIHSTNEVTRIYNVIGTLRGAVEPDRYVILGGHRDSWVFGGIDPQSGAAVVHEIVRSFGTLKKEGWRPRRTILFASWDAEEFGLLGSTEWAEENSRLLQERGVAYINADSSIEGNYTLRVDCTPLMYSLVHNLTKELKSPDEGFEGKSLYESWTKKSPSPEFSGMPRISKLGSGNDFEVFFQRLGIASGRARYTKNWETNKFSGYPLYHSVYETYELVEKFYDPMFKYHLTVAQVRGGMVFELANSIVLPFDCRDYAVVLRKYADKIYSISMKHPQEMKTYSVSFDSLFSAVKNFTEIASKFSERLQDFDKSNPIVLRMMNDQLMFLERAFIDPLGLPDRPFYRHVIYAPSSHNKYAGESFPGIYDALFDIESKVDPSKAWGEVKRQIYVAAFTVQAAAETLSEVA

SMILES: O=C(O)CC[C@H](NC(=O)N[C@@H](CCCCNC(=O)Nc1ccc(I)cc1)C(=O)O)C(=O)O [Comparative Example 1, reference compound]
- IC50 (PSMA protein): 0.0307 ± 0.0102 µM

SMILES: O=C(O)CC[C@H](NC(=O)N[C@@H](CCCCNC(=O)N(Cc1ccncc1)Cc1cn(CCOCC[18F])nn1)C(=O)O)C(=O)O [Example 7-5]
- IC50 (PSMA protein): 0.0118 µM

SMILES: O=C(O)CC[C@H](NC(=O)N[C@@H](CCCCNC(=O)N(Cc1cn(CCOCC[18F])nn1)c1ccncc1)C(=O)O)C(=O)O [Example 7-6]
- binding capacity higher than [18F]DCFPyL (Comparative Example 1) (PSMA protein): about 6 times
- binding to the PSMA protein (in words) (PSMA protein): most strongly bound
- IC50 (PSMA protein): 0.00508 µM
- % Internalization ratio (Mean ± SD) (PC-3 PIP; 30 min): 93.30 ± 2.11%
- % Internalization ratio (Mean ± SD) (PC-3 PIP; 60 min): 91.89 ± 5.76%
- % Internalization ratio (Mean ± SD) (PC-3 PIP; 120 min): 94.77 ± 2.92%
- % Internalization ratio (Mean ± SD) (PC-3 PIP; 240 min): 96.32 ± 1.08%
- tumor binding (MicroPET/CT, FIG. 3) (PSMA+ PC-3 PIP tumors): selectively bound to PSMA+PC-3 PIP tumors
- excretion (MicroPET/CT, FIG. 3) (PSMA+ PC-3 PIP tumors): rapidly excreted through the kidneys and bladder
- PIP to blood (PSMA+ PC-3 PIP tumor; [1]): 14.05 ± 3.61
- PIP to liver (PSMA+ PC-3 PIP tumor; [1]): 5.64 ± 6.10
- PIP to muscle (PSMA+ PC-3 PIP tumor; [1]): 13.00 ± 4.97
- PIP to spleen (PSMA+ PC-3 PIP tumor; [1]): 7.31 ± 3.34
- PIP/flu (PSMA+ PC-3 PIP tumor; [1]): 16.00 ± 5.68
- PIP to blood (PSMA+ PC-3 PIP tumor; 1 h after tail vein injection): 30.30 ± 17.05
- PIP to liver (PSMA+ PC-3 PIP tumor; 1 h after tail vein injection): 9.93 ± 13.26
- PIP to muscle (PSMA+ PC-3 PIP tumor; 1 h after tail vein injection): 20.11 ± 14.99
- PIP to spleen (PSMA+ PC-3 PIP tumor; 1 h after tail vein injection): 12.46 ± 16.18
- PIP/flu (PSMA+ PC-3 PIP tumor; 1 h after tail vein injection): 23.08 ± 14.91
- PIP to blood (PSMA+ PC-3 PIP tumor; 2 h after tail vein injection): 36.90 ± 9.52
- PIP to liver (PSMA+ PC-3 PIP tumor; 2 h after tail vein injection): 13.71 ± 12.60
- PIP to muscle (PSMA+ PC-3 PIP tumor; 2 h after tail vein injection): 38.11 ± 14.83
- PIP to spleen (PSMA+ PC-3 PIP tumor; 2 h after tail vein injection): 25.98 ± 8.66
- PIP/flu (PSMA+ PC-3 PIP tumor; 2 h after tail vein injection): 33.32 ± 14.64
- PIP to blood (PSMA+ PC-3 PIP tumor; 4 h after tail vein injection): 42.90 ± 18.49
- PIP to liver (PSMA+ PC-3 PIP tumor; 4 h after tail vein injection): 19.77 ± 11.81
- PIP to muscle (PSMA+ PC-3 PIP tumor; 4 h after tail vein injection): 45.39 ± 22.54
- PIP to spleen (PSMA+ PC-3 PIP tumor; 4 h after tail vein injection): 32.51 ± 10.12
- PIP/flu (PSMA+ PC-3 PIP tumor; 4 h after tail vein injection): 35.69 ± 11.64

SMILES: O=C(O)CC[C@H](NC(=O)N[C@@H](CCCCNC(=O)NCc1cn(CCF)nn1)C(=O)O)C(=O)O [Example 7-1]
- IC50 (PSMA protein): 0.635 ± 0.263 µM

SMILES: O=C(O)CC[C@H](NC(=O)N[C@@H](CCCCNC(=O)NCc1cn(CCOCC[18F])nn1)C(=O)O)C(=O)O [Example 7-4]
- IC50 (PSMA protein): 0.057 ± 0.033 µM

SMILES: O=C(O)CC[C@H](NC(=O)N[C@@H](CCCCNC(=O)Nc1ccc([123I])cc1)C(=O)O)C(=O)O [Comparative Example 1, reference compound]
- % Internalization ratio (Mean ± SD) (PC-3 PIP; 30 min): 91.27 ± 4.03%
- % Internalization ratio (Mean ± SD) (PC-3 PIP; 60 min): 86.91 ± 8.13%
- % Internalization ratio (Mean ± SD) (PC-3 PIP; 120 min): 94.31 ± 2.94%
- % Internalization ratio (Mean ± SD) (PC-3 PIP; 240 min): 95.01 ± 2.58%
- tumor binding (MicroPET/CT, FIG. 3) (PSMA+ PC-3 PIP tumors): selectively bound to PSMA+PC-3 PIP tumors
- excretion (MicroPET/CT, FIG. 3) (PSMA+ PC-3 PIP tumors): rapidly excreted through the kidneys and bladder

Reference: patent US10870629B2, “18F-labelled compound for prostate cancer diagnosis, and use thereof” (FUTURECHEM CO., LTD., priority 2017, dated 2020)
